Experimental data as given in patent publication US7491819B1 (priority 2004, dated 2009).
Read-outs that look alike come from different tables or passages of the source.

What was measured:
NL-Rluc virus = assay: Inhibition of HIV replication (recombinant NL-Rluc virus, luciferase); format: cell-based; conditions: Human immunodeficiency virus 1, read-out: Inhibition of HIV replication
HIV-integrase = target: T1, HIV-integrase (Human immunodeficiency virus type 1 group M subtype B, UniProt P12497); assay: HIV-Integrase Inhibition Activity (SPA bead strand-transfer assay); format: biochemical; conditions: Table 1; read-out: Activity (HIV-integrase inhibition, IC50 class)
T1 construct: Recombinant integrase (0.26 ng) was incubated with the beads
In short: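 Strand-transfer read-out: CPM from P33-labelled target DNA (0.1 fmol) joined to bead-bound biotin substrate DNA (5 pmole), with EDTA stop at 10 mM final. Integrase (0.26 ng) prebound to streptavidin SPA beads 90 min, 37° C, and washed before adding inhibitor.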

HIV-1 303B = assay: microbe, parasite or virus in culture; format: cell-based; conditions: for overall antiviral effect of the two-drug combination with Example 19 (in words): classification from combination indices and confidence intervals; for Combination Indices at 50% HIV Inhibition (Confidence Interval) / Combination Indices at 75% HIV Inhibition (Confidence Interval) / Combination Indices at 90% HIV Inhibition (Confidence Interval): in combination with Example 19, 95% CI in parenthesis
Protocol: Virus and cell lines. The T-cell line, MT-2, was obtained through the AIDS Research and Reference Reagent Program. MT-2 cells were sub-cultured twice a week in RPMI 1640 medium supplemented with 10% fetal bovine serum, 2 mM L-glutamine, and 10 mM HEPES buffer pH 7.5. The HIV-1303B virus is a molecular clone derived from the NL4-3 strain of HIV-1 that was obtained from the NIH AIDS Research and Reference Reagent Program. For combinations with enfuvirtide, the NL36G virus was used. […] Virus stocks were made by transfecting 293T cells with a proviral DNA clone using LipofectAMINE PLUS (Invitrogen), according to the manufacturer's instructions. Three days post-transfection, virus was harvested and passaged once in MT-2 cells before titration in MT-2 cells.
Chemicals. Example 19, atazanavir, didanosine, stavudine, efavirenz, and enfuvirtide (T-20) were synthesized by Bristol-Myers Squibb using published or known reactions. […] Tenofovir was tested as tenofovir disopoxil fumarate. Zidovudine and zalcitabine were purchased from Sigma, and emtricitabine from Moravek Biochemicals.
Drug Susceptibility and Cytotoxicity Assays. For drug susceptibility assays, MT-2 cells were infected with HIV-1 303B (or NL36G), at an MOI of 0.001, and seeded into 96-well microtiter plates (2.5×10^5 cells/ml) containing serial dilutions of test compounds. […] Each drug ratio consisted of an array of 3-fold serial dilutions, and was performed with eight or more replicas on separate multi-well plates. HIV infected cells were incubated at 37° C. in 5% CO2, and on day five post-infection, the extent of virus replication was measured by determining cell viability using the CellTiter 96 Aqueous Non-Radioactive Cell Proliferation Assay (Promega). […] Cytotoxicity assays were performed in parallel with the combination experiments. Here, uninfected cells were exposed to the same drug combinations, and assayed after five days for cell viability using the MTS assay.
Analysis of Drug Combination Effects. For determination of combination index (CI) values, drugs were diluted in a fixed ratio and multiple ratios were analyzed. The drug serial dilutions spanned a range of concentrations near the EC50 value of each compound, so that equivalent antiviral activities could be compared. The normalized responses from each therapy are fit to the four-parameter logistic model with a common minimum and maximum across all therapies. Conceptually, this equation can be written as
In this equation, Fa stands for “fraction affected,” and represents the fraction of the viral load that has been inactivated. […] The EC50, represented by the Ci in the above equation, is the drug concentration that is expected to reduce the amount of virus by 50%, and the Bi are the parameters that reflects the slope of the concentration-response curve. For this assay, A is the bottom plateau common to all curves, D is the common top plateau, Bj is the “slope” parameter for the jth therapy, and Cj is the concentration that produces an effect equal to the average of A and D for the jth therapy. Therapies 1 and 2 correspond to mono therapies 1 and 2, respectively. Therapies 3, 4, and 5 correspond to the three combination therapies. EC50 values for each drug were determined from the single drug experiments, using the above equation. The equation was fit using a nonlinear regression routine (Proc Nlin) in PC SAS version 8.2 (SAS Institute Inc.).
To assess antiviral effects of different drug combination treatments, combination indices (CIs) were calculated according to Chou and Rideout. The combination index was computed as
In this equation [Dm]1 and [Dm]2 are the concentrations of drugs that would individually produce a specific level of effect, while [D]1 and [D]2 are the concentrations of drugs in combination that would produce the same level of effect.
Theoretically, additivity is implied if the CI is equal to one, synergy if the CI is less than one, and antagonism if the CI is greater than one.

[1] = Human immunodeficiency virus 1, MT2, 120 h
[2] = EC50 ratio Example 19:comparator 1:1
[3] = EC50 ratio Example 19:comparator 1:2.5
[4] = EC50 ratio Example 19:comparator 2.5:1

| Compound | EC50 (NL-Rluc virus) | IC50 (HIV-integrase) | EC50 (HIV-1 303B; [1]) | overall antiviral effect of the two-drug combination with Example 19 (in words) (HIV-1 303B) | Combination Indices at 50% HIV Inhibition (Confidence Interval) (HIV-1 303B; [2]) | Combination Indices at 75% HIV Inhibition (Confidence Interval) (HIV-1 303B; [2]) | Combination Indices at 90% HIV Inhibition (Confidence Interval) (HIV-1 303B; [2]) | Combination Indices at 50% HIV Inhibition (Confidence Interval) (HIV-1 303B; [3]) | Combination Indices at 75% HIV Inhibition (Confidence Interval) (HIV-1 303B; [3]) | Combination Indices at 90% HIV Inhibition (Confidence Interval) (HIV-1 303B; [3]) | Combination Indices at 50% HIV Inhibition (Confidence Interval) (HIV-1 303B; [4]) | Combination Indices at 75% HIV Inhibition (Confidence Interval) (HIV-1 303B; [4]) | Combination Indices at 90% HIV Inhibition (Confidence Interval) (HIV-1 303B; [4]) | EC50 (HIV-1 303B; single drug, MT-2 cells, MOI 0.001, day five, MTS cell viability, read-out: EC50) |
| --- | --- | --- | --- | --- | --- | --- | --- | --- | --- | --- | --- | --- | --- | --- |
| CCC1OCCn2c1nc(C(=O)NCc1ccc(F)cc1-n1ncnc1C)c(O)c2=O (centres unmarked) [Example 285, Pyrimido[2,1-c][1,4]oxazine-2-carboxamide, 9-ethyl-N-[[4-fluoro-2-(5-methyl-1H-1,2,4-triazol-1-yl)phenyl]methyl]-4,6,7,9-tetrahydro-3-hydroxy-4-oxo-] | 3 to 100 nM |  |  |  |  |  |  |  |  |  |  |  |  |  |
| CC1(C)OCCn2c1nc(C(=O)NCc1ccc(F)cc1)c(O)c2=O [Example 19, Pyrimido[2,1-c][1,4]oxazine-2-carboxamide, N-[(4-fluorophenyl)methyl]-4,6,7,9-tetrahydro-3-hydroxy-9,9-dimethyl-4-oxo-] |  | 2 to 100 nM | 22 nM | synergistic or additive-synergistic |  |  |  |  |  |  |  |  |  |  |
| Cc1c(O)cccc1C(=O)N[C@@H](CSc1ccccc1)[C@H](O)CN1C[C@H]2CCCC[C@H]2C[C@H]1C(=O)NC(C)(C)C [Nelfinavir, nelfinavir] |  |  | 22 nM | synergistic-additive effect | 0.79 (0.73, 0.86) | 0.75 (0.67, 0.82) | 0.71 (0.56, 0.84) | 0.97 (0.89, 1.06) | 0.87 (0.79, 0.95) | 0.78 (0.68, 0.88) | 1.09 (1.00, 1.18) | 0.98 (0.89, 1.08) | 0.90 (0.76, 1.03) |  |
| Nc1ccn([C@H]2CC[C@@H](CO)O2)c(=O)n1 [Zalcitabine, zalcitabine] |  |  | 124 nM | synergistic to additive | 0.61 (0.48, 0.73) | 0.56 (0.39, 0.73) | 0.53 (0.28, 0.79) | 0.55 (0.44, 0.66) | 0.40 (0.31, 0.49) | 0.30 (0.18, 0.42) | 0.80 (0.62, 0.97) | 0.82 (0.58, 1.07) | 0.86 (0.46, 1.26) |  |
| Cc1cn([C@H]2C=C[C@@H](CO)O2)c(=O)[nH]c1=O [Stavudine, stavudine] |  |  | 241 nM | synergistic | 0.52 (0.43, 0.61) | 0.46 (0.36, 0.56) | 0.42 (0.26, 0.57) | 0.60 (0.48, 0.71) | 0.60 (0.46, 0.74) | 0.61 (0.40, 0.83) | 0.70 (0.57, 0.84) | 0.63 (0.48, 0.79) | 0.58 (0.37, 0.81) |  |
| O=c1[nH]cnc2c1ncn2[C@H]1CC[C@@H](CO)O1 [Didanosine, didanosine] |  |  | 10700 nM | synergistic | 0.58 (0.53, 0.63) | 0.47 (0.35, 0.60) | 0.39 (0.22, 0.56) | 0.56 (0.51, 0.62) | 0.46 (0.40, 0.52) | 0.38 (0.32, 0.44) | 0.50 (0.46, 0.54) | 0.49 (0.44, 0.53) | 0.48 (0.42, 0.54) |  |
| C[C@H](Cn1cnc2c(N)ncnc21)OCP(=O)(O)O [Tenofovir, tenofovir] |  |  |  | synergistic to additive | 0.66 (0.57, 0.75) | 0.54 (0.45, 0.62) | 0.43 (0.33, 0.53) | 0.68 (0.59, 0.77) | 0.60 (0.48, 0.72) | 0.52 (0.36, 0.69) | 0.90 (0.77, 1.04) | 0.84 (0.67, 1.01) | 0.79 (0.55, 1.03) | 18 nM |
| Cc1cn([C@H]2C[C@H](N=[N+]=[N-])[C@@H](CO)O2)c(=O)[nH]c1=O [Zidovudine] |  |  | 12 nM | synergistic to additive | 0.59 (0.49, 0.69) | 0.56 (0.41, 0.70) | 0.54 (0.36, 0.70) | 0.65 (0.56, 0.75) | 0.73 (0.59, 0.86) | 0.81 (0.57, 1.06) | 0.72 (0.61, 0.83) | 0.83 (0.64, 1.02) | 0.96 (0.63, 1.30) |  |
| Nc1nc(NC2CC2)c2ncn([C@H]3C=C[C@@H](CO)C3)c2n1 [Abacavir, abacavir] |  |  | 1040 nM | synergistic | 0.68 (0.59, 0.76) | 0.67 (0.56, 0.79) | 0.67 (0.49, 0.84) | 0.87 (0.77, 0.97) | 0.74 (0.63, 0.85) | 0.63 (0.50, 0.77) | 0.86 (0.76, 0.96) | 0.82 (0.68, 0.96) | 0.79 (0.58, 0.99) |  |
| CC(C)CN(C[C@@H](O)[C@H](Cc1ccccc1)NC(=O)O[C@H]1CCOC1)S(=O)(=O)c1ccc(N)cc1 [Amprenavir, amprenavir] |  |  | 62 nM | synergistic-additive effect | 0.83 (0.67, 1.00) | 0.84 (0.61, 1.08) | 0.89 (0.50, 1.23) | 0.84 (0.69, 0.99) | 0.77 (0.58, 0.96) | 0.75 (0.46, 1.04) | 0.90 (0.77, 1.04) | 0.62 (0.50, 0.74) | 0.44 (0.30, 0.57) |  |
